Results: ChEMBL document CHEMBL1201861, “Genomics of Drug Sensitity in Cancer screening data, Wellcome Trust Sanger Institute”

What was measured:
Assay in all cases: cells
[1] = tested on: D-542MG; assay type: functional, cell-based, Homo sapiens
Description: SANGER: Inhibition of human D-542MG cell growth in a cell viability assay.

[2] = tested on: NCI-H1963; assay type: functional, cell-based, Homo sapiens; settings: Homo sapiens, NCI-H1963;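 note: cell growth inhibition of the human line, determined with a cell viability assay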
Description: SANGER: Inhibition of human NCI-H1963 cell growth in a cell viability assay.

[3] = tested on: RL95-2; assay type: functional, cell-based; settings: Homo sapiens;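 note: RL95-2 growth inhibition determined through a cell viability readout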
Description: SANGER: Inhibition of human RL95-2 cell growth in a cell viability assay.

[4] = tested on: LC4-1; assay type: functional, cell-based, Homo sapiens; settings: Homo sapiens, LC4-1;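 note: growth inhibition of LC4-1 cells, read out with a cell viability assay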
Description: SANGER: Inhibition of human LC4-1 cell growth in a cell viability assay.

[5] = tested on: K052; assay type: functional, cell-based, Homo sapiens; settings: Homo sapiens, K052;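 note: Read-out from a cell viability assay, IC50 reflecting suppression of K052 cell growth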
Description: SANGER: Inhibition of human K052 cell growth in a cell viability assay.

[6] = tested on: CPC-N; assay type: functional, cell-based, Homo sapiens; settings: Homo sapiens, CPC-N;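 note: growth inhibition of CPC-N cells, with a cell viability assay as the readout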
Description: SANGER: Inhibition of human CPC-N cell growth in a cell viability assay.

[7] = tested on: IMR-5; assay type: functional, cell-based, Homo sapiens; settings: Homo sapiens, IMR-5;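 note: growth inhibition of human IMR-5 cells, read out with a cell viability assay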
Description: SANGER: Inhibition of human IMR-5 cell growth in a cell viability assay.

[8] = tested on: D-336MG; assay type: functional, cell-based, Homo sapiens
Description: SANGER: Inhibition of human D-336MG cell growth in a cell viability assay.

[9] = tested on: Raji; assay type: functional, cell-based, Homo sapiens; settings: Homo sapiens, Raji;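 note: cell viability assay measuring inhibition of Raji cell growth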
Description: SANGER: Inhibition of human Raji cell growth in a cell viability assay.

[10] = tested on: SR; assay type: functional, cell-based, Homo sapiens; settings: Homo sapiens, SR
Description: SANGER: Inhibition of human SR cell growth in a cell viability assay.

[11] = tested on: UACC-812; assay type: functional, cell-based, Homo sapiens; settings: Homo sapiens, UACC-812
Description: SANGER: Inhibition of human UACC-812 cell growth in a cell viability assay.

[12] = tested on: EW-22; assay type: functional, cell-based, Homo sapiens;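 note: growth inhibition of the EW-22 cell line, measured with a cell viability readout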
Description: SANGER: Inhibition of human EW-22 cell growth in a cell viability assay.

[13] = tested on: MKN-7; assay type: functional, cell-based, Homo sapiens; settings: mkn-7;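 note: growth inhibition of MKN-7 cells, read out with a cell viability assay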
Description: SANGER: Inhibition of human MKN7 cell growth in a cell viability assay.

[14] = tested on: KYSE-410; assay type: functional, cell-based, Homo sapiens; settings: kyse-410;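 note: growth inhibition of KYSE-410 cells, measured through a cell viability readout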
Description: SANGER: Inhibition of human KYSE-410 cell growth in a cell viability assay.

[15] = tested on: SAS; assay type: functional, cell-based, Homo sapiens; settings: sas;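 note: growth inhibition of SAS cells, read out with a cell viability assay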
Description: SANGER: Inhibition of human SAS cell growth in a cell viability assay.

[16] = tested on: RMG-I; assay type: functional, cell-based, Homo sapiens; settings: rmg-i;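 note: growth inhibition of human RMG-I cells, read out with a cell viability assay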
Description: SANGER: Inhibition of human RMG-I cell growth in a cell viability assay.

[17] = tested on: COR-L105; assay type: functional, cell-based, Homo sapiens; settings: cor-l105;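 note: cell growth inhibition determined with a viability assay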
Description: SANGER: Inhibition of human COR-L105 cell growth in a cell viability assay.

[18] = tested on: BXPC-3; assay type: functional, cell-based, Homo sapiens; settings: bxpc-3;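 note: growth inhibition of human BxPC-3 cells, read out by a cell viability assay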
Description: SANGER: Inhibition of human BxPC-3 cell growth in a cell viability assay.

[19] = tested on: COLO-741; assay type: functional, cell-based, Homo sapiens; settings: colo-741
Description: SANGER: Inhibition of human COLO-741 cell growth in a cell viability assay.

[20] = tested on: NCI-H2291; assay type: functional, cell-based, Homo sapiens; settings: nci-h2291
Description: SANGER: Inhibition of human NCI-H2291 cell growth in a cell viability assay.

[21] = tested on: C32; assay type: functional, cell-based, Homo sapiens; settings: c32;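 note: cell viability assay, with IC50 reflecting inhibition of C32 cell growth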
Description: SANGER: Inhibition of human C32 cell growth in a cell viability assay.

[22] = tested on: NCI-H1563; assay type: functional, cell-based, Homo sapiens; settings: nci-h1563;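 note: growth inhibition of human NCI-H1563 cells, read out with a cell viability assay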
Description: SANGER: Inhibition of human NCI-H1563 cell growth in a cell viability assay.

[23] = tested on: RERF-LC-MS; assay type: functional, cell-based, Homo sapiens; settings: rerf-lc-ms;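 note: growth inhibition of human RERF-LC-MS cells, read out by a cell viability assay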
Description: SANGER: Inhibition of human RERF-LC-MS cell growth in a cell viability assay.

[24] = tested on: D-423MG; assay type: functional, cell-based, Homo sapiens; settings: d-423mg
Description: SANGER: Inhibition of human D-423MG cell growth in a cell viability assay.

[25] = tested on: OAW-42; assay type: functional, cell-based, Homo sapiens; settings: oaw-42;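 note: growth inhibition of OAW-42 cells, read out with a cell viability assay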
Description: SANGER: Inhibition of human OAW-42 cell growth in a cell viability assay.

[26] = tested on: U-118-MG; assay type: functional, cell-based, Homo sapiens; settings: u-118-mg
Description: SANGER: Inhibition of human U-118-MG cell growth in a cell viability assay.

[27] = tested on: CAL-85-1; assay type: functional, cell-based, Homo sapiens; settings: cal-85-1;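 note: growth inhibition of human CAL-85-1 cells, read out with a cell viability assay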
Description: SANGER: Inhibition of human CAL-85-1 cell growth in a cell viability assay.

[28] = tested on: KYSE-150 cell line; assay type: functional, cell-based, Homo sapiens; settings: kyse-150;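 note: growth inhibition of human KYSE-150 cells, read out with a cell viability assay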
Description: SANGER: Inhibition of human KYSE-150 cell growth in a cell viability assay.

[29] = tested on: NCI-H1573; assay type: functional, cell-based, Homo sapiens; settings: nci-h1573;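 note: growth inhibition of NCI-H1573 cells, read out with a cell viability assay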
Description: SANGER: Inhibition of human NCI-H1573 cell growth in a cell viability assay.

[30] = tested on: HCC1419; assay type: functional, cell-based, Homo sapiens; settings: hcc1419;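 note: growth inhibition of human HCC1419 cells, read out as cell viability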
Description: SANGER: Inhibition of human HCC1419 cell growth in a cell viability assay.

[31] = tested on: HMV-2 cell line; assay type: functional, cell-based, Homo sapiens; settings: hmv-2;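 note: growth inhibition of HMV-II cells, read out with a cell viability assay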
Description: SANGER: Inhibition of human HMV-II cell growth in a cell viability assay.

[32] = tested on: 769-P; assay type: functional, cell-based, Homo sapiens; settings: 769-p
Description: SANGER: Inhibition of human 769-P cell growth in a cell viability assay.

[33] = tested on: EFM-19; assay type: functional, cell-based, Homo sapiens; settings: efm-19;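 note: growth inhibition of human EFM-19 cells, measured in a cell viability assay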
Description: SANGER: Inhibition of human EFM-19 cell growth in a cell viability assay.

[34] = tested on: GP5d; assay type: functional, cell-based, Homo sapiens; settings: gp5d;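 note: growth inhibition of human GP5d cells, read out with a cell viability assay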
Description: SANGER: Inhibition of human GP5d cell growth in a cell viability assay.

[35] = tested on: NCI-H1993; assay type: functional, cell-based, Homo sapiens; settings: nci-h1993;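 note: growth inhibition of the cancer cell line, assessed with a cell viability assay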
Description: SANGER: Inhibition of human NCI-H1993 cell growth in a cell viability assay.

[36] = tested on: DK-MG; assay type: functional, cell-based, Homo sapiens; settings: dk-mg;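 note: growth inhibition of DK-MG cells, read out with a cell viability assay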
Description: SANGER: Inhibition of human DK-MG cell growth in a cell viability assay.

[37] = tested on: SK-MEL3; assay type: functional, cell-based, Homo sapiens, SK-MEL-3; settings: sk-mel-3;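 note: growth inhibition of human SK-MEL-3 cells, read out with a cell viability assay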
Description: SANGER: Inhibition of human SK-MEL-3 cell growth in a cell viability assay.

[38] = tested on: MKN-1; assay type: functional, cell-based, Homo sapiens; settings: mkn-1;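 note: growth inhibition of human MKN1 cells, read out by a cell viability measurement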
Description: SANGER: Inhibition of human MKN1 cell growth in a cell viability assay.

[39] = tested on: MDA-MB-231; assay type: functional, cell-based, Homo sapiens; settings: mda-mb-231
Description: SANGER: Inhibition of human MDA-MB-231 cell growth in a cell viability assay.

[40] = tested on: PANC-08-13; assay type: functional, cell-based, Homo sapiens; settings: panc-08-13;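 note: cell growth inhibition, measured with a cell viability assay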
Description: SANGER: Inhibition of human PANC-08-13 cell growth in a cell viability assay.

[41] = tested on: NCI-H1793; assay type: functional, cell-based, Homo sapiens; settings: nci-h1793;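 note: cell growth inhibition, read out by a cell viability assay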
Description: SANGER: Inhibition of human NCI-H1793 cell growth in a cell viability assay.

[42] = tested on: Panc1005; assay type: functional, cell-based, Homo sapiens; settings: panc1005;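 note: growth inhibition of human PANC-10-05 cells, measured by a cell viability assay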
Description: SANGER: Inhibition of human PANC-10-05 cell growth in a cell viability assay.

[43] = tested on: SNU-449; assay type: functional, cell-based, Homo sapiens; settings: snu-449
Description: SANGER: Inhibition of human SNU-449 cell growth in a cell viability assay.

[44] = tested on: M059J; assay type: functional, cell-based, Homo sapiens; settings: m059j;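 note: growth inhibition of M059J cells, read out with a cell viability assay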
Description: SANGER: Inhibition of human M059J cell growth in a cell viability assay.

[45] = tested on: GMS-10; assay type: functional, cell-based, Homo sapiens; settings: gms-10;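 note: growth inhibition of GMS-10 cells, read out as cell viability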
Description: SANGER: Inhibition of human GMS-10 cell growth in a cell viability assay.

[46] = tested on: KOSC-2; assay type: functional, cell-based, Homo sapiens; settings: kosc-2;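 note: growth inhibition of KOSC-2 cells, read out by a cell viability assay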
Description: SANGER: Inhibition of human KOSC-2 cell growth in a cell viability assay.

[47] = tested on: HOS; assay type: functional, cell-based, Homo sapiens; settings: hos;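 note: growth inhibition of human HOS cells, read out with a cell viability assay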
Description: SANGER: Inhibition of human HOS cell growth in a cell viability assay.

[48] = tested on: SK-MEL-28; assay type: functional, cell-based, Homo sapiens; settings: sk-mel-28;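 note: growth inhibition of human SK-MEL-28 cells, read out with a cell viability assay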
Description: SANGER: Inhibition of human SK-MEL-28 cell growth in a cell viability assay.

[49] = tested on: HSC-4; assay type: functional, cell-based, Homo sapiens; settings: hsc-4;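 note: growth inhibition of human HSC-4 cells, read out with a cell viability assay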
Description: SANGER: Inhibition of human HSC-4 cell growth in a cell viability assay.

In the case of COc1cc2ncn(-c3cc(OCc4ccccc4S(C)(=O)=O)c(C#N)s3)c2cc1OC [GSK-319347A], the IC50 ([1]; Homo sapiens, D-542MG) is reported as over 5 µM, the IC50 [2] is reported as over 5 µM and the IC50 [3] is reported as over 5 µM. For the same compound, the IC50 [4] was over 5 µM, the IC50 [5] was over 5 µM and the IC50 [6] was over 5 µM. For the same compound, the IC50 [7] was over 5 µM, the IC50 ([8]; Homo sapiens, D-336MG) was over 5 µM and the IC50 [9] was over 5 µM. For the same compound, the IC50 [10] was over 5 µM, the IC50 [11] was over 5 µM and the IC50 ([12]; Homo sapiens, EW-22) was over 5 µM.

COc1cc2ncn(-c3cc(OCc4ccccc4C(F)(F)F)c(C(N)=O)s3)c2cc1OC [GW843682X] gave an IC50 [2] of 0.0138 µM, an IC50 [3] of 0.0113 µM and an IC50 [4] of 0.0545 µM. For the same compound, the IC50 [5] was 0.0354 µM, the IC50 [6] was 0.0412 µM and the IC50 [7] was 0.0354 µM. For the same compound, the IC50 ([8]; Homo sapiens, D-336MG) was over 0.256 µM, the IC50 [9] was over 0.256 µM and the IC50 [10] was 0.0145 µM.

CC(=O)O[C@H]1C(=O)[C@@]2(C)[C@H]([C@H](OC(=O)c3ccccc3)[C@]3(O)C[C@H](OC(=O)[C@H](O)[C@@H](NC(=O)c4ccccc4)c4ccccc4)C(C)=C1C3(C)C)[C@]1(OC(C)=O)CO[C@@H]1C[C@@H]2O [PACLITAXEL] showed an IC50 [2] of 0.0313 µM, an IC50 [3] of 0.000668 µM and an IC50 [4] of 0.0435 µM. It also gave an IC50 [5] of 0.0325 µM, an IC50 [6] of 0.0308 µM and an IC50 [7] of 0.0045 µM. It also gave an IC50 ([8]; Homo sapiens, D-336MG) of over 0.102 µM, an IC50 [9] of over 0.102 µM and an IC50 [10] of 0.0103 µM.

N[C@@H](CSC(c1ccccc1)(c1ccccc1)c1ccccc1)C(=O)O [S-TRITYL-L-CYSTEINE] showed an IC50 [2] of 1.15 µM, an IC50 [3] of 0.605 µM and an IC50 [4] of 2.02 µM. It also gave an IC50 [5] of 0.971 µM, an IC50 [6] of 2.46 µM and an IC50 [7] of 1.27 µM. For the same compound, the IC50 ([8]; Homo sapiens, D-336MG) was over 5.12 µM, the IC50 [9] was 3.6 µM and the IC50 [10] was 0.718 µM.

CC[C@H](CO)Nc1nc(NCc2ccccc2)c2ncn(C(C)C)c2n1 [SELICICLIB] gave an IC50 ([1]; Homo sapiens, D-542MG) of over 16 µM, an IC50 [2] of over 16 µM and an IC50 [3] of over 16 µM. For the same compound, the IC50 [4] was over 16 µM, the IC50 [6] was over 16 µM and the IC50 [7] was over 16 µM. It also gave an IC50 ([8]; Homo sapiens, D-336MG) of over 16 µM, an IC50 [9] of 13.8 µM and an IC50 [10] of over 16 µM. The IC50 [11] was over 16 µM.

In the case of CCN(CC)CCNC(=O)c1c(C)[nH]c(/C=C2\C(=O)Nc3ccc(F)cc32)c1C [SUNITINIB], the IC50 [2] is reported as over 8 µM, the IC50 [3] is reported as 2.11 µM and the IC50 [4] is reported as 4.38 µM. For the same compound, the IC50 [5] was 2.4 µM, the IC50 [6] was over 8 µM and the IC50 [7] was 7.55 µM. For the same compound, the IC50 ([8]; Homo sapiens, D-336MG) was over 8 µM, the IC50 [9] was over 8 µM and the IC50 [10] was 1.55 µM.

Work on CISPLATIN yielded an IC50 [13] of 20 µM, an IC50 ([1]; d-542mg) of 3.26 µM and an IC50 [14] of 515 µM. For the same compound, the IC50 [15] was 18.5 µM, the IC50 [16] was 1150 µM and the IC50 [17] was 22.7 µM. The IC50 [18] was 22.3 µM, the IC50 [19] was 28.7 µM and the IC50 [20] was 458 µM. The IC50 [21] was 6.38 µM, the IC50 [22] was 146 µM and the IC50 [23] was 418 µM. It also gave an IC50 [24] of 13.9 µM, an IC50 [25] of 8.63 µM and an IC50 [26] of 16.8 µM. For the same compound, the IC50 [27] was 732 µM, the IC50 [28] was 411 µM and the IC50 [29] was 112 µM. The IC50 [30] was 29.5 µM, the IC50 [31] was 11.2 µM and the IC50 [32] was 16.2 µM. For the same compound, the IC50 [33] was 245 µM, the IC50 [34] was 24.2 µM and the IC50 [35] was 1350 µM. It also gave an IC50 [36] of 137 µM, an IC50 ([8]; d-336mg) of 33.9 µM and an IC50 [37] of 684 µM. The IC50 [38] was 42.1 µM, the IC50 [39] was 264 µM and the IC50 [40] was 22.5 µM. It also gave an IC50 [41] of 19.1 µM, an IC50 [42] of 8.61 µM and an IC50 [43] of 72 µM. It also gave an IC50 [44] of 10.4 µM, an IC50 [45] of 85.2 µM and an IC50 [46] of 2.91 µM. It also gave an IC50 [47] of 2.56 µM, an IC50 [48] of 22.2 µM and an IC50 [49] of 1.58 µM. For the same compound, the IC50 ([12]; ew-22) was 2.08 µM.
